Laboratory results: patent US20060014704A1, “Compounds and their preparation for the treatment of Alzheimer's disease by inhibiting beta-amyloid peptide production” (priority 2004, published 2006)
“Also recorded” adds a separate entry of the source.

How the values were obtained:
[1] = test system: full-length APP and APP C-terminal fragments, CHO-APP cells; test: Western blot analysis of APP processing in CHO-APP cells; type: cell-based, Chinese hamster; conditions: cell lysates
Excerpt: FIG. 13. depicts an analysis of APP processing after Rk1 treatment. Steady-state levels of full-length APP and APP C-terminal fragments (APP-CTFs) were examined by Western blot analysis using anti-R1 antibody. […] Correlated Aβ42 levels for each sample are shown in the bottom panel.

[2] = biological target: T1, γ-secretase cleavage of APP (AICD) (Homo sapiens, UniProt P49768); test: Cell-free generation of AICD from membrane fractions of 293 cells overexpressing APP; type: biochemical
T1 construct: Membrane fractions isolated from 293 cells overexpressing either APP (A), Notch-AE (B) or p75-AE (C); endogenous in cells; host or cells: 293 cells (membrane fractions); only the substrates APP, Notch-ΔE and p75-ΔE are overexpressed
Experimental: (§1) Membrane fractions isolated from 293 cells overexpressing either APP (A), Notch-AE (B) or p75-AE (C) and incubated in the presence of indicated compounds: Compound E (CpdE, general γ-secretase inhibitor), Rgk351, Rk1 and sulindac sulfide (SS).

[3] = biological target: T2, γ-secretase cleavage of Notch1 (NICD) (Homo sapiens, UniProt P49768); test: Cell-free generation of NICD from membrane fractions of 293 cells overexpressing Notch-AE; type: biochemical
T2 construct: Membrane fractions isolated from 293 cells overexpressing either APP (A), Notch-AE (B) or p75-AE (C); endogenous in cells; host or cells: 293 cells (membrane fractions); only the substrates APP, Notch-ΔE and p75-ΔE are overexpressed
Experimental: as §1

γ-secretase complex = γ-secretase complex (Homo sapiens, UniProt P49768); conditions: partially purified γ-secretase complex; cited from earlier work
[4] = test system: Aβ40 and Aβ42 production, CHO cells stably transfected with human APP695; test: Secreted Aβ40/Aβ42 ELISA in CHO cells expressing human APP (CHO-APP cells); type: cell-based, Chinese hamster; set-up: key to Aβ42-lowering activity: Aβ42-lowering activity (“Yes”); no profound effects (“No”); non-determined (“ND”); Ginsenosides that affected cell viability are indicated as “Cytotoxic.”
Experimental: The CHO cells were treated with the indicated compounds (at 50 μg/ml) for 8 hrs. Aβ42 levels in the medium were measured by ELISA and normalized to intracellular full-length APP.
The potential effects of ginsenosides and their analogues in treating AD were examined. First, a number of ginsenosides were screened based on their effects on Aβ generation. The effects of various ginsenosides on Aβ (e.g., Aβ40 and Aβ42) production was initially accessed by incubating the Chinese hamster ovary (CHO) cells expressing human APP(CHO-APP cells) with each ginsenoside purified from unprocessed ginseng (known as “white ginseng”). These representative ginsenosides included Rb1, Rb2, Rc, Rd, Re, Re, Rg1 and Rg2 and differ in their side chains and sugar moieties.
After 8 hours of incubation, the media were collected and the levels of secreted Aβ40 and Aβ42 were determined by ELISA.

cell viability = test: Cell viability of treated cells; type: cell-based; conditions: up to 100 μM, 8 hour treatment
Experimental: (§2) CHO-APP/PS1 (A) and CHO-APP/ΔE9PS1 (B) cells were treated with the indicated compounds at 50 μM for 8 hrs and the levels of secreted Aβ40 and Aβ42 were determined as described in FIG. 1. […] The PS1-ΔE9 FAD mutation diminished the Aβ42 response to Rk1 treatment (B).
Tables 1-3 Structure of ginsenosides utilized in the study and their effects on Aβ42 generation. They differ at the two or three side chains attached to the common triterpene backbone known as dammarane. The common structure skeleton for each group of ginsenosides is shown in the top panel. Ginsenosides that harbor Aβ42-lowering activity are indicated in the far right column of the tables: Aβ42-lowering activity (“Yes”), no profound effects (“No”), and non-determined (“ND”). Ginsenosides that affected cell viability are indicated as “Cytotoxic.” Abbreviation for carbohydrates are as follows: Glc, D-glucopyranosyl; Ara (pyr), L-arabinopyranosyl; Ara (fur), L-arabinofuranyosyl; Rha, L-rhamnopyranosyl.
Steaming ginseng at high temperature gave rise to additional ginsenosides with enhanced pharmacological activity, including (20S)Rg3, Rk1 and Rg5 (22-25). […] Aβ40 levels were not changed by treatment with any of the ginsenosides tested. The potency of Aβ42-lowering activity was highest with Rk1 and (20S)Rg3. […] These studies provide a structure-activity relationship between the chemical structures of ginsenosides and Aβ42-lowering activity, further providing the basis for designing additional Aβ42-lowering analogues as well as for defining a class of compounds that harbor Aβ42-lowering activity.

[5] = test system: Aβ40 and Aβ42 production, CHO-APP/PS1 cells; test: Secreted Aβ ELISA in CHO-APP/PS1 cells (wild-type PS1); type: cell-based, Chinese hamster
Experimental: The effects of Rg5 on the Aβ42 generation were much smaller as compared to Rgk351 and Rk1.
FIG. 10 depicts the effects of native ginsenosides on Aβ42 production. CHO cells stably transfected with human APP695 together with either wild-type (A, CHO-APP/PS1 cells) or ΔE9 FAD mutant (B, CHO-APP/ΔE9PS1 cells) forms of PS1 were used. Cells were treated with the indicated compounds (at 50 μM) for 8 hrs. Levels of secreted Aβ40 and Aβ42 in the medium were determined by ELISA and normalized to intracellular full-length APP. In CHO-APP/PS1 cells, average Aβ amounts in control samples were 320 pM for Aβ40 and 79 pM for Aβ42. The relative levels of Aβ and Aβ42 were normalized to values obtained from non-treated and vehicle-treated cells and are shown as % to control+s.d.). One of three representative experiments are shown.
as §2

[6] = test system: Aβ42 production in mammalian cells; conditions: Tae-Wan Kim et al., cited from earlier work
[7] = test system: Aβ40 and Aβ42 secretion, primary embryonic cortical neurons; test: Aβ secretion in primary embryonic cortical neurons derived from Tg2576 transgenic mice; type: cell-based, mouse
Excerpt: Treatment of Rk1 and Rg3 decreased the level of secreted Aβ40 and Aβ42.

## C=C(CCC=C(C)C)[C@H]1CC[C@]2(C)[C@@H]1[C@H](O)C[C@@H]1[C@@]3(C)CC[C@H](O[C@@H]4O[C@H](CO)[C@@H](O)[C@H](O)[C@H]4O[C@@H]4O[C@H](CO)[C@@H](O)[C@H](O)[C@H]4O)C(C)(C)[C@@H]3CC[C@]12C [Rk1]
[1]
  APP C-terminal fragments (γ-secretase substrates), steady-state levels: increased accumulation; also recorded: up-regulated
  full-length APP levels: not affected; also recorded: did not affect
[2]
  cell-free generation of AICD: does not significantly affect; also recorded: not affected
[3]
  cell-free generation of NICD: does not significantly affect; also recorded: not affected
γ-secretase complex
  Aβ42 production in a cell-free assay: inhibit the Aβ42 production
[4]; 50 μg/ml, 8 hrs, FIG. 4
  generation of Aβ42 (Aβ42 levels in the medium, ELISA, normalized to intracellular full-length APP): reduce the generation of Aβ42
[4]; CHO-APP cells
  Aβ42-lowering effect compared with other agents: most effective
[4]; CHO-APP cells, FIG. 12A, read-out: IC50 of Aβ42 lowering activity
  IC50: ~20 µM
[4]; FIG. 6 / FIG. 12B
  preference for Aβ42 vs. Aβ40 in cell-based assay: preferentially reduced Aβ42 (vs. Aβ40); also recorded: preferentially lowers Aβ42 (vs. Aβ40); also recorded: rather selective to Aβ42; also recorded: primarily affect Aβ42 production
[4]; dose-dependent, FIG. 5 / FIG. 12A
  Aβ42 in the medium, dose-response: reduced Aβ42; also recorded: lower Aβ42 in a dose-dependent manner
[4]; general statement
  production of Aβ42 in cells: lower the production of Aβ42
[4]; only at very high concentration
  concentration at which secretion of Aβ40 was affected: ~100 µM
[4]; overnight treatment, FIG. 12B
  Aβ40 production: slightly affected
  Aβ42 production: reduce Aβ42 production
[4]; summary of Tables 1-3
  Aβ42-lowering activity: Yes
Cell viability
  cell viability: not affected
[5]; 50 μM, 8 hrs, FIG. 11
  potency of Aβ42-reducing activity (rank): Rk1>/=(20S)Rg3>Rg5>(20R)Rg3; also recorded: highest
[5]; CHO cells co-expressing human APP and wild-type presenilin 1, FIG. 8
  Aβ42 levels: reduced the Aβ42 levels
[5]; heat-processing derived ginsenosides, 50 μM, 8 hrs, FIG. 11
  secretion of Aβ42: selectively lowered the secretion of Aβ42
[6]; patent application pending
  production of Aβ42 in mammalian cells: lower the production of Aβ42
[6]
  relative effectiveness in reducing Aβ42 levels: most effective
[7]
  level of secreted Aβ40: decreased
  level of secreted Aβ42: decreased
